In US9994547B2, “Heteroarylamide inhibitors of TBK1” (Takeda Pharmaceutical Company Limited, priority 2014, dated 2018):

Target: Full length human TBK1 (Homo sapiens (Human), UniProt Q9UHD2)
Test: Inhibition of TBK1 Enzyme (Example A)
Type: biochemical
Conditions: -log(IC50), IC50 molar; 3 nM TBK1, 25 μM ATP, 60 min RT
Description: Full length human TBK1 with an N-terminal His-tag was cloned into the pFastBacl vector and was transfected into Sf9 cells. 72 hours later the virus was harvested and amplified through two additional rounds of infections. Then 400 mL of the resulting virus stock was used to infect 10 L of Sf9 cells at a density of 2×10^6 cells/mL. Cell pellets were harvested 48 hours post infection and were lysed by freeze-thaw, homogenization and sonication in binding buffer (25 mM Tris pH7.6, 1 M NaCl, 10 mM imidazole, 0.5 mM TCEP) plus 0.1% Triton X-100 and complete protease inhibitor cocktail. The lysate was spun and the supernatant was purified with a HisTrap FF crude and a Superdex 200 pg column.
TBK1 inhibition is determined using a 384 well plate format in buffer containing 20 mM Hepes, pH 7.4, 10 mM MgCl2, 1 mM EDTA, 0.01% Brij-L23, 1 mM DTT. Each test compound is prepared in DMSO using 2.5-fold serial dilutions for 11 data points, which are added to the buffer so that each dilution contains 1% DMSO. To each well is added 2 μL of 1 μM 5FAM-DRHDSGLDSMKDE-NH2 (in buffer), 2 μL of diluted test compound (1% DMSO in buffer), and 5 μL of 3 nM TBK1 and 25 μM ATP (in buffer). The reaction mixture is incubated at RT for 60 min, and quenched by adding 20 mM Hepes, pH 7.4, 10 mM MgCl2, 1 mM EDTA, 0.01% Brij-L23, 1 mM DTT+25 mM EDTA. To quantify the fluorescent-labeled substrate and product following reaction, the test plate is loaded on a Caliper LC-3000, which measures percent of conversion by microfluidic-based separation. Corresponding IC50 values are calculated by non-linear curve fitting of the compound concentrations and percent of inhibition to the standard IC50 equation and reported as pIC50, i.e., −log(IC50), where IC50 is the molar concentration.

Sequence of Full length human TBK1 (Q9UHD2 whole entry): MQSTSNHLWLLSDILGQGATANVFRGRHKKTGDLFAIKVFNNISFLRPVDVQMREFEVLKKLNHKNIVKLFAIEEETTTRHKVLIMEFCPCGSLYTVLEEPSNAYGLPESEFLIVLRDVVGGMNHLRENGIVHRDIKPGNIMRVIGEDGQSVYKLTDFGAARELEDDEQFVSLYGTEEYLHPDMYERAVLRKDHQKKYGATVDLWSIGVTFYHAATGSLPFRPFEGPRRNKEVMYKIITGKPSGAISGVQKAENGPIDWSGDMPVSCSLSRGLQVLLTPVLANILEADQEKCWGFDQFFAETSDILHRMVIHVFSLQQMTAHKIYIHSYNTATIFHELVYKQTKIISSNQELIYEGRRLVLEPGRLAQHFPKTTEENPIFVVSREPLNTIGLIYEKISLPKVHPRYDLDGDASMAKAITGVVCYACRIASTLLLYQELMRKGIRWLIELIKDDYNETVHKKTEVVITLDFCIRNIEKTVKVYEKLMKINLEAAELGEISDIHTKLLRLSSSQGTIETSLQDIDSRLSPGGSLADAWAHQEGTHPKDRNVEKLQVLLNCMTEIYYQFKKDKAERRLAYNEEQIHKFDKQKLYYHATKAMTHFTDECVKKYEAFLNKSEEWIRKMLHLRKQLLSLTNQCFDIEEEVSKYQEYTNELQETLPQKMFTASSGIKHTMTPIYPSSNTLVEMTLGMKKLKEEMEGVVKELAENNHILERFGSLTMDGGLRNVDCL

| TBK1 Inhibition (pIC50) | SMILES |
| --- | --- |
| 6.7 | C[C@H](Nc1cc(-c2cnc(NC(=O)C3CC3)cn2)ccc1C#N)C(=O)N1CC(O)C1 [Example 11, (S)-N-(5-(4-cyano-3-((1-(3-hydroxyazetidin-1-yl)-1-oxopropan-2-yl)amino)phenyl)pyrazin-2-yl)cyclopropanecarboxamide] |
| 6.6 | CN(C)C(=O)[C@@H](CC(F)F)Nc1cc(-c2cnc(NC(=O)C3CC3)cn2)cnc1C#N [Example 78, (R)-N-(5-(6-cyano-5-((1-(dimethylamino)-4,4-difluoro-1-oxobutan-2-yl)amino)pyridin-3-yl)pyrazin-2-yl)cyclopropanecarboxamide] |
| 8.2 | N#Cc1ncc(-c2cnc(NC(=O)C3CC3)cn2)cc1NCC(=O)N1CCC[C@@H]1C(F)(F)F [Example 48, (R)-N-(5-(6-cyano-5-((2-oxo-2-(2-(trifluoromethyl)pyrrolidin-1-yl)ethyl)amino)pyridin-3-yl)pyrazin-2-yl)cyclopropanecarboxamide] |
| 6.8 | C[C@@H](O)[C@H](Nc1cc(-c2cnc(NC(=O)C3CC3)cn2)cnc1C#N)C(=O)N(C)C [Example 32, N-(5-(6-cyano-5-(((2S,3R)-1-(dimethylamino)-3-hydroxy-1-oxobutan-2-yl)amino)pyridin-3-yl)pyrazin-2-yl)cyclopropanecarboxamide] |
| 5.6 | CN1CC(N(C)C(=O)CNc2cc(-c3cnc(NC(=O)C4CC4)cn3)cnc2C#N)C1 [Example 105, N-(5-(6-cyano-5-((2-(methyl(1-methylazetidin-3-yl)amino)-2-oxoethyl)amino)pyridin-3-yl)pyrazin-2-yl)cyclopropanecarboxamide] |
| 7.5 | CC(O)CN(CC(F)(F)F)C(=O)CNc1cc(-c2cnc(NC(=O)C3CC3)cn2)cnc1C#N (stereo not drawn) [Example 110, N-(5-(6-cyano-5-((2-((2-hydroxypropyl)(2,2,2-trifluoroethyl)amino)-2-oxoethyl)amino)pyridin-3-yl)pyrazin-2-yl)cyclopropanecarboxamide] |
| 6.6 | N#Cc1ncc(-c2cnc(NC(=O)C3CC3)cn2)cc1NCC(=O)N1CCC(C#N)C1 (stereo not drawn) [Example 102, N-(5-(6-cyano-5-((2-(3-cyanopyrrolidin-1-yl)-2-oxoethyl)amino)pyridin-3-yl)pyrazin-2-yl)cyclopropanecarboxamide] |
| 7.7 | C[C@H](Nc1cc(-c2cnc(NC(=O)C3CC3)cn2)ccc1C#N)C(=O)N(C)CCO [Example 19, (S)-N-(5-(4-cyano-3-((1-((2-hydroxyethyl)(methyl)amino)-1-oxopropan-2-yl)amino)phenyl)pyrazin-2-yl)cyclopropanecarboxamide] |
| 7.1 | CN(CCF)C(=O)C(CC(F)F)Nc1cc(-c2cnc(NC(=O)C3CC3)cn2)cnc1C#N (stereo not drawn) [Example 85, N-(5-(6-cyano-5-((4,4-difluoro-1-((2-fluoroethyl)(methyl)amino)-1-oxobutan-2-yl)amino)pyridin-3-yl)pyrazin-2-yl)cyclopropanecarboxamide] |
| 7.4 | CN(C)C(=O)C(CC(F)F)Nc1cc(-c2cnc(NC(=O)C3CC3)cn2)cnc1C#N (stereo not drawn) [Example 68, N-(5-(6-cyano-5-((1-(dimethylamino)-4,4-difluoro-1-oxobutan-2-yl)amino)pyridin-3-yl)pyrazin-2-yl)cyclopropanecarboxamide] |
| 5.4 | N#Cc1ncc(-c2cnc(NC(=O)C3CC3)cn2)cc1NCC(=O)N1CC2(COC2)C1 [Example 104, N-(5-(6-cyano-5-((2-oxo-2-(2-oxa-6-azaspiro[3.3]heptan-6-yl)ethyl)amino)pyridin-3-yl)pyrazin-2-yl)cyclopropanecarboxamide] |
| 8.3 | N#Cc1ncc(-c2cnc(NC(=O)C3CC3)cn2)cc1NCC(=O)N1CCC[C@@H]1C(F)F [Example 141, (R)-N-(5-(6-cyano-5-((2-(2-(difluoromethyl)pyrrolidin-1-yl)-2-oxoethyl)amino)pyridin-3-yl)pyrazin-2-yl)cyclopropanecarboxamide] |
| 7.4 | CCN(C)C(=O)CNc1cc(-c2cnc(NC(=O)C3CC3)cn2)ccc1C#N [Example 20, N-(5-(4-cyano-3-((2-(ethyl(methyl)amino)-2-oxoethyl)amino)phenyl)pyrazin-2-yl)cyclopropanecarboxamide] |
| 7.7 | CC[C@H](Nc1cc(-c2cnc(NC(=O)C3CC3)cn2)cnc1C#N)C(=O)N(C)CCF [Example 56, (S)-N-(5-(6-cyano-5-((1-((2-fluoroethyl)(methyl)amino)-1-oxobutan-2-yl)amino)pyridin-3-yl)pyrazin-2-yl)cyclopropanecarboxamide] |
| 6.6 | CN(CCS(C)(=O)=O)C(=O)CNc1cc(-c2cnc(NC(=O)C3CC3)cn2)cnc1C#N [Example 66, N-(5-(6-cyano-5-((2-(methyl(2-(methylsulfonyl)ethyl)amino)-2-oxoethyl)amino)pyridin-3-yl)pyrazin-2-yl)cyclopropanecarboxamide] |
| 7.1 | C[C@@H](Nc1cc(-c2cnc(NC(=O)C3CC3)cn2)ccc1C#N)C(=O)N(C)C [Example 2, (R)-N-(5-(4-cyano-3-((1-(dimethylamino)-1-oxopropan-2-yl)amino)phenyl)pyrazin-2-yl)cyclopropanecarboxamide] |
| 7.2 | N#Cc1ncc(-c2cnc(NC(=O)C3CC3)cn2)cc1NCC(=O)N1CCOCC1C#N (stereo not drawn) [Example 63, N-(5-(6-cyano-5-((2-(3-cyanomorpholino)-2-oxoethyl)amino)pyridin-3-yl)pyrazin-2-yl)cyclopropanecarboxamide] |
| 7.8 | C[C@H](Nc1cc(-c2cnc(NC(=O)C3CC3)cn2)cnc1C#N)C(=O)N1CCOC[C@@H]1C#N [Example 81, N-(5-(6-cyano-5-(((S)-1-((S)-3-cyanomorpholino)-1-oxopropan-2-yl)amino)pyridin-3-yl)pyrazin-2-yl)cyclopropanecarboxamide] |
| 6.3 | CC[C@@H](Nc1cc(-c2cnc(NC(=O)C3CC3)cn2)cnc1C#N)C(=O)N(C)C [Example 31, (R)-N-(5-(6-cyano-5-((1-(dimethylamino)-1-oxobutan-2-yl)amino)pyridin-3-yl)pyrazin-2-yl)cyclopropanecarboxamide] |
| 5.8 | C[C@H](O)[C@@H](Nc1cc(-c2cnc(NC(=O)C3CC3)cn2)cnc1C#N)C(=O)N(C)C [Example 38, N-(5-(6-cyano-5-(((2R,3S)-1-(dimethylamino)-3-hydroxy-1-oxobutan-2-yl)amino)pyridin-3-yl)pyrazin-2-yl)cyclopropanecarboxamide] |
| 6.2 | CN(C)C(=O)C(CC#N)Nc1cc(-c2cnc(NC(=O)C3CC3)cn2)cnc1C#N (stereo not drawn) [Example 44, N-(5-(6-cyano-5-((3-cyano-1-(dimethylamino)-1-oxopropan-2-yl)amino)pyridin-3-yl)pyrazin-2-yl)cyclopropanecarboxamide] |
| 7.0 | CC[C@H](Nc1cc(-c2cnc(NC(=O)C3CC3)cn2)ncc1C#N)C(=O)N(C)C [Example 127, (S)-N-(5-(5-cyano-4-((1-(dimethylamino)-1-oxobutan-2-yl)amino)pyridin-2-yl)pyrazin-2-yl)cyclopropanecarboxamide] |
| 7.9 | C[C@H](Nc1cc(-c2cnc(NC(=O)C3CC3)cn2)cnc1C#N)C(=O)N(C)[C@@H](C)C#N [Example 89, N-(5-(6-cyano-5-(((S)-1-(((S)-1-cyanoethyl)(methyl)amino)-1-oxopropan-2-yl)amino)pyridin-3-yl)pyrazin-2-yl)cyclopropanecarboxamide] |
| 6.9 | CC(O)CN(C)C(=O)CNc1cc(-c2cnc(NC(=O)C3CC3)cn2)ccc1C#N (stereo not drawn) [Example 134, N-(5-(4-cyano-3-((2-((2-hydroxypropyl)(methyl)amino)-2-oxoethyl)amino)phenyl)pyrazin-2-yl)cyclopropanecarboxamide] |
| 7.4 | C[C@H](Nc1cc(-c2cnc(NC(=O)C3CC3)cn2)cnc1C#N)C(=O)N1CCO[C@@H]1C(F)(F)F [Example 60, N-(5-(6-cyano-5-((S)-1-oxo-1-((R)-2-(trifluoromethyl)oxazolidin-3-yl)propan-2-ylamino)pyridin-3-yl)pyrazin-2-yl)cyclopropanecarboxamide] |
| 7.2 | COCCN(CC(F)(F)F)C(=O)CNc1cc(-c2cnc(NC(=O)C3CC3)cn2)cnc1C#N [Example 77, N-(5-(6-cyano-5-((2-((2-methoxyethyl)(2,2,2-trifluoroethyl)amino)-2-oxoethyl)amino)pyridin-3-yl)pyrazin-2-yl)cyclopropanecarboxamide] |

Same assay, conditions: -log(IC50), IC50 molar; 3 nM TBK1, 25 μM ATP, 60 min RT; read-out: TBK1 Inhibition (pIC50) (converted)

| IC50 | SMILES |
| --- | --- |
| 15.8 nM | N#Cc1ncc(-c2cnc(NC(=O)C3CC3)cn2)cc1NCC(=O)N1CCO[C@H]1C(F)(F)F [Example 96, (S)-N-(5-(6-cyano-5-((2-oxo-2-(2-(trifluoromethyl)oxazolidin-3-yl)ethyl)amino)pyridin-3-yl)pyrazin-2-yl)cyclopropanecarboxamide] |
